{"source": "patent US20140037700A1", "about": "“Composition and Method for Enhancing an Immune Response” (priority 2011, published 2014)", "origin": "cited, not measured here", "key": {"[1]": {"conditions": "combined with liposomes"}, "[2]": {"tested_on": "M. tb cells in NRP2 state", "conditions": "oxygen 0.06% of normal saturation (anaerobic)"}, "[3]": {"tested_on": "M. tuberculosis survival within macrophages"}, "TACO gene transcription": {"tested_on": "TACO gene transcription", "conditions": "human macrophages"}, "[4]": {"tested_on": "tuberculosis growth in human monocytes", "design": "dose or concentration left out as unconfirmed", "conditions": "alone, in vitro; Denis et al."}, "[5]": {"tested_on": "anti-microbial peptide cathelicidin", "conditions": "exposure of macrophages"}, "[6]": {"conditions": "in the presence of a normal or high calcium diet; DeLuca et al."}}, "data": [{"molecule": "Monophosphoryl lipid A", "values": [{"measurement": "mucosal immunoprotective responses", "setting": "[1]", "value": "induce mucosal immunoprotective responses"}]}, {"molecule": "Cc1ncc([N+](=O)[O-])n1CCO", "note": "[metronidazole]", "values": [{"measurement": "susceptibility of NRP2 cells to antibiotic", "setting": "[2]", "value": "sensitive"}]}, {"molecule": "NNC(=O)c1ccncc1", "note": "[isoniazid]", "values": [{"measurement": "susceptibility of NRP2 cells to antibiotic", "setting": "[2]", "value": "resistant"}]}, {"molecule": "epigallocatechin-3-gallate [EGCG]", "values": [{"measurement": "mycobacterium survival within macrophages", "setting": "[3]; in vitro, flow cytometry and colony counts", "value": "substantially reduced mycobacterium survival"}, {"measurement": "M. tuberculosis survival within macrophages", "setting": "[3]; used prior to M. tb exposure in vitro", "value": "completely inhibits"}, {"measurement": "TACO gene transcription", "setting": "TACO gene transcription", "value": "down-regulates TACO gene transcription in a dose-dependent manner"}]}, {"molecule": "C=C1/C(=C\\C=C2/CCC[C@]3(C)[C@@H]([C@H](C)CCCC(C)(C)O)CC[C@@H]23)C[C@@H](O)C[C@@H]1O", "note": "[Calcitriol, 1,25-dihydroxyvitamin D]", "values": [{"measurement": "ability of human monocytes to restrict tuberculosis growth", "setting": "[4]", "value": "significant ability to restrict tuberculosis growth"}, {"measurement": "expression of anti-microbial peptide cathelicidin", "setting": "[5]", "value": "induces expression"}, {"measurement": "prevention or suppression of autoimmune disease in models", "setting": "[6]", "value": "prevent or markedly suppress"}, {"measurement": "bacillary replication in macrophages", "setting": "M.tb within macrophages; even at extremely low concentrations, Crowle et al.", "value": "slow and stop bacillary replication"}, {"measurement": "colony forming units", "setting": "M.tb within macrophages; primary human macrophages infected with virulent M. tb", "value": "reduced colony forming units"}]}]}
